The subject of data set [1] is Trypanosoma brucei brucei. The data set is described as follows: microbe, parasite or virus in culture. The data set is classed as functional, organism-based. Conditions: 427.
The next data set can be described thus: in vitro. Conditions: human.
Data set [2] relates to Trypanosoma brucei brucei. The data set is described as follows: Antitrypanosomal activity against Trypanosoma brucei brucei by pathogen box screening based assay. The data set is classed as functional, organism-based.

The results in this text go back to ChEMBL document CHEMBL4368861 (Medchemcomm, 2018).

The structures appear in SMILES notation.

Take `COc1ccc(C(=N)N)cc1-c1cn(-c2ccc(C(=N)N)cc2)nn1`: in data set [1], 270 nM corresponded to half-maximal inhibition (IC50).
The same measure, in the same setting: the value for `Cc1nn(C)c(C)c1NS(=O)(=O)c1c(Cl)cc(-c2ccnc(N3CCNCC3)c2)cc1Cl` was 10 nM.
On the same count and under the same terms, the value for `COc1cccc(-n2nnnc2S(C)(=O)=O)c1` was 4120 nM.
With `CC(Oc1ccccc1)C(=O)Nc1nc(-c2ccccn2)cs1` (configuration not stated), in data set [1], 3220 nM corresponded to half-maximal inhibition (IC50). Also, in “in vitro”, the selectivity ratio was determined as 11.
The matching figures for `CN(C)c1cc(NC(=O)Nc2ccccc2)c2ccccc2n1`: 3360 nM and 5.3.
As for `CC1=Nc2ccc(Cl)cc2C(O)(c2ccc(C)cc2)N1CCN1CCCCC1` (configuration not stated), the IC50 (commonly the concentration at which inhibition is half-maximal) in data set [1] stood at 4500 nM.
Take `CC(C)n1nc(-c2cc3c(Cl)cccc3[nH]2)c2c(N)ncnc21`: in data set [1], half-maximal inhibition (IC50) required 6100 nM. Besides, the selectivity ratio in the data set “in vitro” stood at 5.8.
For `COC(=O)c1c(NC(=O)c2c(F)c(F)c(F)c(F)c2F)sc2c1CCCCC2`, the selectivity ratio in the data set “in vitro” came to 2.2.
In the case of `O=C(Nc1nc(-c2ccccn2)cs1)c1cncn1-c1ccccc1`, the IC50 in data set [1] came to 2870 nM.
On the same count and under the same terms, the value for `Nc1nc2cc(-c3cncc(Oc4ccc(F)cc4)c3)ccc2[nH]1` was 1050 nM.
As for `Cc1cnc(N2CCN[C@@H](Cc3ccccc3)C2)nc1Oc1ccc(-n2ccnc2)cc1`, the selectivity ratio in the data set “in vitro” was determined as 4.9.
On to `COc1ccc(C2=NN(C3CCCCCC3)C(=O)C2(C)C)cc1OCCCCOc1ccc(-c2nn[nH]n2)cc1`, for which the IC50 in data set [1] was 2300 nM.
Still for that read-out and setting: the value for `N=C(N)c1ccc(-c2cc(-c3ccccc3)on2)cc1` was 3500 nM; that for `O=C(Nc1ccc(C(F)(F)F)c(C(F)(F)F)c1)c1cc(Cl)ccc1O` was 660 nM; that for `COc1ccc(C2=NN(C3CCCCCC3)C(=O)[C@@H]3CC=CC[C@H]23)cc1OCCCCOc1ccc(-c2nnn[nH]2)cc1` was 500 nM.
Still for that read-out and setting: the value for `c1ccc(Oc2ccc(-c3cc(N4CCNCC4)[nH]n3)cc2)cc1` was 5100 nM.
As for `c1ccc(Oc2ccc(-c3cc(C4CCOCC4)[nH]n3)cc2)cc1`, the IC50 in data set [1] worked out at 1800 nM.
In the case of `O=C(Nc1ccc2c(c1)B(O)OC2)c1ccccc1C(F)(F)F`, the IC50 in data set [1] is 110 nM.
On the same count and under the same terms, the value for `O=C(Nc1ccc(F)c(-c2nc3cc(-c4ccccc4)cnc3[nH]2)c1)N1CCCC1` was 20 nM.
For the compound `CS(=O)(=O)c1ccccc1C(=O)N(Cc1ccccc1)c1ccccc1`, the IC50 in data set [1] is 500 nM.
As for `CNC(=O)C1Cc2ccccc2N1C(=O)Cc1ccc(F)cc1` (configuration not stated), in data set [1], the IC50 was found to be 1500 nM.
Take `Cc1nn2c(=O)c3c([nH]c2c1-c1ccc(Cl)cc1)CCCC3`: the IC50 in data set [1] is 1800 nM; in data set [2], 500 nM.
In data set [1], `Cc1noc(C)c1COc1cccc(C(=O)N=c2[nH]cccc2C)c1` yielded an IC50 of 1200 nM.
On the same count and under the same terms, the value for `CCN(CC)S(=O)(=O)c1ccc(C(=O)Nc2cc(C)nn2-c2nc(C)c(C)c(=O)[nH]2)cc1` was 4300 nM.
Same read-out and setting: the value for `CCC(=O)Nc1ccccc1C(=O)Nc1ccccn1` was 1000 nM.
In data set [1], `O=C(NCc1nnc2n1CCCCC2)c1ccc(-c2ccc(F)cc2)o1` had an IC50 of 230 nM.
On the same count and under the same terms, the value for `O=C(NCCc1ccn(-c2ccccc2)n1)C1CCCCC1` was 270 nM; that for `CC1CCCCN1C(=O)NCCc1coc(-c2ccc(F)cc2)n1` (configuration not stated) was 130 nM.
With `COc1ccc(S(=O)(=O)Nc2ccc(CN3CCN(C(=O)c4cccc(C#N)c4)CC3)cc2)cc1`, the IC50 in data set [1] is 1100 nM.
On the same count and under the same terms, the value for `Cc1ccc(S(=O)(=O)Nc2ccc(CN3CCN(C(=O)c4cccc(C#N)c4)CC3)cc2)cc1` was 240 nM.
Regarding `COc1ccc2nccc(NC(=O)C3CCN(CCc4ccc(Cl)cc4)CC3)c2n1`, in “in vitro”, the selectivity ratio stood at 0.8.
Take `CCOC(=O)c1c(NC(=O)c2c(F)c(F)c(F)c(F)c2F)sc(C(N)=O)c1C`: the IC50 in data set [1] worked out at 2990 nM. The selectivity ratio in the data set “in vitro” was 2.2.
With `CC(C)(C)c1cnc(NC(=O)c2ccccc2O)s1`, in data set [1], the midpoint of inhibition, the IC50, lay at 5450 nM.
In the case of `CCCn1c(NC(=O)c2ccc3ccccc3n2)nc2ccccc21`, the selectivity ratio in “in vitro” turned out to be 3.5.
Compound `CN1CCN(S(=O)(=O)c2ccc(-c3ccc4c(Nc5ncc(Cl)cn5)ccnc4c3)cc2)CC1` came in with an IC50 in data set [1] of 5300 nM.
`NCCN(C(=O)c1ccc(Cl)cc1Cl)c1ccc(OCc2ccc(Cl)cc2)cc1` had an IC50 in data set [1] of 240 nM.
The same measure, in the same setting: the value for `CCc1ccccc1-n1c(C)cn2c3c(=O)n(C(C(=O)OC)C(C)C)c(=O)n(C)c3nc12` (configuration not stated) was 130 nM.
The compound `Cc1[nH]c2ccccc2c1C(c1cccs1)N1CCN(C)CC1` (configuration not stated) yielded an IC50 in data set [1] of 1500 nM.
`CS(=O)(=O)c1ccc(C(=O)N(CC2CCCO2)c2nc3ccccc3s2)cc1[N+](=O)[O-]` (configuration not stated): in data set [1], inhibition was half-maximal at 3490 nM (IC50). The selectivity ratio in “in vitro” is 2.3.
The compound `CCCCN(CCCC)c1c(C#N)cc(S(=O)(=O)Nc2ccccc2)cc1C#N` came in with an IC50 in data set [1] of 1200 nM.
In turn, `N=C(N)Nc1ccc(-c2ccc(-c3ccc(N=C(N)N)c(Cl)c3)o2)cc1Cl` yielded an IC50 in data set [1] of 520 nM.
Still for that read-out and setting: the value for `N=C(N)Nc1ccc(-c2ccc(-c3ccc(NC(=N)N)cc3Cl)o2)c(Cl)c1` was 5700 nM; that for `O=C(Nc1ccccc1)c1ccc(-c2cc3ccncc3cc2OC2CCNCC2)s1` was 2720 nM; that for `O=C(NCCc1ccccc1)c1cc(-c2cccnc2)cnc1NCC1CC1` was 6020 nM.
On to `COc1cc(-c2cc(-c3ccc(S(C)(=O)=O)cc3)cnc2N)ccc1O`, for which the selectivity ratio in the data set “in vitro” turned out to be 76.
In data set [1], `c1ccc(-c2nc(NC3CCCCC3)cc(C3CC3)n2)nc1` gave an IC50 of 3510 nM. For the same compound, the selectivity ratio in “in vitro” is 30.
Compound `Cc1ccc2c(c1C)NC(=O)C21NN=C(c2ccccc2)S1` (configuration not stated) returned an IC50 in data set [1] of 4680 nM.
In data set [1], `OCCc1ccc(Nc2nccc(-c3nnc4ccccn34)n2)cc1` gave an IC50 of 2390 nM. Further, the selectivity ratio in the data set “in vitro” stood at 17.
In data set [1], `O=C(Nc1ccc(N2CCNCC2)cc1)c1ccn2ncc(-c3cccc(Cl)c3)c2n1` returned an IC50 of 1450 nM.
On the same count and under the same terms, the value for `Nc1nccc2ccc(-c3ccc4nccn4c3)cc12` was 3290 nM.
On to `CN1CCC(NCc2cccc(-c3ccc(S(=O)(=O)NCc4ccccc4)cc3)c2)CC1`, for which the IC50 in data set [1] stood at 2380 nM. For the same compound, the selectivity ratio in the data set “in vitro” came out at 59.
`Cc1ccc2[nH]c(C3CCCNC3)c(-c3ccncc3)c2c1` (configuration not stated) returned an IC50 in data set [1] of 5150 nM.
`COc1ccc(OC)c(NCc2ccc3nc(N)nc(N)c3c2Cl)c1`: it took 2070 nM to reach half-maximal inhibition in data set [1] (IC50). Also, the selectivity ratio in the data set “in vitro” came out at 21.
The compound `Cc1ncc(-c2ccnc(Nc3ccc(S(C)(=O)=O)cc3)n2)n1C(C)C` [AZD-5438] returned an IC50 in data set [1] of 140 nM.
On to `CO[C@@H](C(=O)N1Cc2[nH]nc(NC(=O)c3ccc(N4CCN(C)CC4)cc3)c2C1)c1ccccc1` [DANUSERTIB], for which the IC50 in data set [1] came out at 1300 nM.
For `Oc1c(I)cc(I)c2cccnc12` [IODOQUINOL], in the data set “in vitro”, the selectivity ratio came out at 13.
The compound `CNC(=O)c1nn(C)c2c1C(C)(C)Cc1cnc(Nc3ccc(N4CCN(C)CC4)cc3)nc1-2` [MILCICLIB] gave an IC50 in data set [1] of 170 nM.
